Results from patent publication US9757477B2, “Imaging brown adipose tissue with curcumin derivatives” (The General Hospital Corporation, priority 2013, dated 2017).
“And” between values parts separate entries of the source, which are not always exact repeats. Identical values can stand only once. “Also recorded” adds a separate entry of the source.

Legend:
[1] = Excitation and emission wavelengths of BAT imaging agents; format: physicochemical
Experimental: In some embodiments, the methods include irradiating the mammal with light of the appropriate wavelength to excite the BAT imaging agent, and detecting emissions therefrom.
Fluorescent dyes were purchased from Exciton Inc. (Dayton, Ohio) and Invitrogen. The reagents used for the synthesis were purchased from Aldrich and used without further purification. Column chromatography was performed on silica gel (SiliCycle Inc., 60 Å, […]) slurry packed into glass columns. 1H, 13C NMR spectra were recorded at 500 MHz and 125 MHz respectively, and reported in ppm downfield from tetramethylsilane. Fluorescence studies were carried out using a F-4500 Fluorescence Spectrophotometer (Hitachi). Mass spectra were obtained at Harvard University, Department of Chemistry Instrumentation Facility. Microscopic images were acquired with Nikon Eclipse 50i microscope. In vivo NIR imaging was performed using the IVIS® Spectrum animal imaging system (Caliper LifeSciences, Perkin Elmer, Hopkinton, Mass.), and data analysis was conducted using LivingImage® 4.2.1 software.

interscapular BAT [2] = assay: Top-down whole-organism NIR fluorescence screening of dyes (ROI1/ROI2 contrast); format: in vivo, nude mice; settings: for visible contrast around the interscapular BAT area: in vivo NIR images; for Ratio No 1 (ROI1/ROI2 average fluorescence intensity) / Ratio No 2 (ROI1/ROI2 average fluorescence intensity) / Ratio No 3 (ROI1/ROI2 average fluorescence intensity) / Ratio AVERAGE (mean ratio ROI1/ROI2): nude mice, one hour post-injection; for Ratio No 1 (ROI1/ROI2 average fluorescence intensity) / Ratio No 2 (ROI1/ROI2 average fluorescence intensity) / Ratio No 3 (ROI1/ROI2 average fluorescence intensity): 10 μg/mouse i.v.; for Ratio No 1 (ROI1/ROI2 average fluorescence intensity): first excitation/emission filter pair; for Ratio No 2 (ROI1/ROI2 average fluorescence intensity): second excitation/emission filter pair; for Ratio No 3 (ROI1/ROI2 average fluorescence intensity): third excitation/emission filter pair; for Ratio AVERAGE (mean ratio ROI1/ROI2): i.v., mean of three filter pairs, hit threshold >1.10
Experimental: 38 fluorescent dyes from commercial resources and from the inventors' laboratory were screened. Dyes with excitation range of 550-745 nm, emission range of 600-840 nm, and with molecular weight of less than 700 Da (except Cy5.5) (representative dyes are listed in FIG. 1d and the full list is shown in Table 2). Their hydrophobicities were not determined. The library was screened by intravenous tail injection of compounds into nude mice (10μg/mouse). Each dye was imaged with three optimized excitation/emission filter-pairs, and images at one hour after i.v. injection were acquired.
Top-down whole organism screening was performed as follows. Nude mice (nu/nu COX7) were purchased from Massachusetts General Hospital and Balb/c mice were from Jackson Laboratory. All animal experimental procedures were approved by the Institutional Animal Care and Use Committee (IACUC) at Massachusetts General Hospital. Dye stock solutions were prepared in DMSO. The final injection solution (0.1 mg/ml) was freshly prepared in a mixed solution of 20% DMSO, 20% Cremophor EL and 60% saline. Nude mice (n=5) were injected with a 100 μL dye solution via tail vein. For each imaging session, mice were anesthetized with a mixture of oxygen and isoflurane for 5 minutes, and then positioned into the imaging chamber of IVIS® Spectrum in vivo pre-clinical imaging system. Images were acquired at one-hour post-injection using sequence imaging with three excitation/emission filter pairs for each dye.
Hits selection was performed as follows. Hits from cell- or protein-based screening are usually selected by setting certain threshold. In the case of the top-down imaging screening, two methods were used (threshold and visible contrast) to select hits. First, three images obtained with three excitation/emission pairs were selected for each dye. These ex/em pairs were selected from the closest excitation and emission wavelengths of the tested dyes. For instance, 605/660 nm, 605/680 nm, 640/680 nm were selected for image acquisition of Nile blue (625/660 nm). The quantification of contrast for each image was calculated as a ratio of two ROIs (region of interest). ROI1 reflected the average signal from interscapular BAT and ROI2 was the average signal of the area that included BAT and white adipose tissue (WAT) around the interscapular site (FIG. 1b, left). The averaged fluorescent signal of ROI was used instead of the total signal, because the total signal depends on the area of ROI, whereas the averaged signal reflects the density of signal. The ratio of ROI1/ROI2 could reflect the signal/noise ratio of the tested probe, and could also reflect the selectivity of the probe for BAT over WAT. For each dye, three ROI1/ROI2 ratios obtained with the three filter pairs were calculated. The mean of the ratios was used as the threshold. If the mean ratio was >1.10, the dye was selected as a potential positive hit (FIG. 1c). Since the contrast of a dye in the top-down screening is in the visible range, the visible contrast around the interscapular BAT area was also tested for the hits with the mean ratio of >1.10. If both mean ratio and the visible contrast were positive, then the hit was subjected to re-testing procedure to validate its reliability as described below.
Although CRANAD-2 and CRANAD-3 were able to provide certain contrast for BAT in vivo, their excitation and emission wavelengths were still shorter than required for an ideal NIR imaging probe (both excitation and emission >640 nm). […] To seek better probes, a sub-library was synthesized based on the structures of the lead probes CRANAD-2 and -3. CRANAD-6, -19, -22, -24, -26, -32 and -43 were synthesized and tested (images and chemical structures, excitation and emission spectra are shown in FIG. 9 a-e). […] However, the ROI1/ROI2 ratio of CRANAD-22 was not improved (FIG. 9c).

interscapular BAT [3] = assay: Re-testing of hits with stepwise dissection and NIR imaging; format: in vivo, mice; settings: stepwise dissection
Experimental: Like protein/cell-based screening, hit re-testing experiments were conducted to validate the reliability of this approach. CRANAD-2, -3, LDS 722 and Rhodamine 640 were subjected to re-testing by repeating the above imaging procedure. Images were acquired one hour after probe injection.
Next, stepwise dissection and imaging were performed to track the source of the fluorescence contrast at the interscapular site. Skin and the thin WAT layer that covers BAT were first removed, and then BAT was dissected, and NIR images were captured at each step. […] The signal contribution from BAT (R(BAT)) was roughly estimated using the ratio of fluorescence signals acquired after (F(BAT)) and before (F(intact)) the first step dissection of skin and WAT.

| Emission λ [1] | Excitation λ [1] | Molecule | visible contrast around the interscapular BAT area (interscapular BAT [2]) | ROI1/ROI2 ratio compared with lead probe (interscapular BAT [2]; sub-library probes, compared with CRANAD-2) | selectivity for BAT (over WAT) (interscapular BAT [3]) | Ratio No 1 (ROI1/ROI2 average fluorescence intensity) (interscapular BAT [2]) | Ratio No 2 (ROI1/ROI2 average fluorescence intensity) (interscapular BAT [2]) | Ratio No 3 (ROI1/ROI2 average fluorescence intensity) (interscapular BAT [2]) | Ratio AVERAGE (mean ratio ROI1/ROI2) (interscapular BAT [2]) | fluorescence signal from BAT (before vs after BAT removal) (interscapular BAT [3]) |
| --- | --- | --- | --- | --- | --- | --- | --- | --- | --- | --- |
| 750 nm | 620 nm | CN(C)c1ccc(/C=C/C2=CC(/C=C/c3ccc(N(C)C)c4ccccc34)=[O+][B-](F)(F)O2)c2ccccc12 [CRANAD-6] | – | – | – | – | – | – | – | – |
| 637 nm | 587 nm | F[B-]1(F)OC(/C=C/c2c(-c3ccccc3)[nH]c3ccccc23)=CC(/C=C/c2c(-c3ccccc3)[nH]c3ccccc23)=[O+]1 [CRANAD-26] | – | – | – | – | – | – | – | – |
| 700 nm | 640 nm | CN(C)c1ccc(/C=C/C=C/C2=CC(/C=C/C=C/c3ccc(N(C)C)cc3)=[O+][B-](F)(F)O2)cc1 [CRANAD-43] | best contrast | higher | not significantly increased; also recorded: poor selectivity | – | – | – | – | – |
| – | – | N=c1cc2oc3cc(N)ccc3nc-2c2ccccc12 [Cresyl Violet] | – | – | – | 9.56E−01 | 9.72E−01 | 1.02E+00 | 9.81E−01 | – |
| – | – | CCN1/C(=C/C=C/C=C/c2oc3ccccc3[n+]2CC)Oc2ccccc21.[I-] [DODC] | – | – | – | 1.08E+00 | 1.09E+00 | 1.10E+00 | 1.09E+00 | – |
| – | – | CCN1/C(=C/C=C/C=C/C=C/c2oc3ccccc3[n+]2CC)Oc2ccccc21.[I-] [DOTC] | – | – | – | 9.48E−01 | 9.44E−01 | 9.52E−01 | 9.48E−01 | – |
| – | – | CN1C(=CC=CC=CC2=[N+](C)c3ccccc3C2(C)C)C(C)(C)c2ccccc21.[I-] [HIDC] | – | – | – | 1.01E+00 | 1.01E+00 | 1.02E+00 | 1.01E+00 | – |
| – | – | CN1C(=CC=CC=CC=CC2=[N+](C)c3ccccc3C2(C)C)C(C)(C)c2ccccc21.[I-] [HITC] | – | – | – | 1.07E+00 | 1.02E+00 | 1.06E+00 | 1.05E+00 | – |
| – | – | CC1(C)C(/C=C/C=C/C=C/C=C2\N(CCCCS(=O)(=O)[O-])c3ccc4ccccc4c3C2(C)C)=[N+](CCCCS(=O)(=O)[O-])c2ccc3ccccc3c21.[Na+] [IR125] | – | – | – | 8.65E−01 | 9.76E−01 | 8.49E−01 | 8.97E−01 | – |
| – | – | CN1/C(=C/C=C2\CCCC(/C=C/C3=[N+](C)c4ccc5ccccc5c4C3(C)C)=C2Cl)C(C)(C)c2c1ccc1ccccc21.Cc1ccc(S(=O)(=O)[O-])cc1 [IR813] | – | – | – | 1.08E+00 | 9.91E−01 | 1.08E+00 | 1.05E+00 | – |
| – | – | CC[n+]1ccccc1/C=C/C=C/c1ccc(N(C)C)cc1.[O-][Cl+3]([O-])([O-])[O-] [LDS698] | – | – | – | 1.03E+00 | 1.06E+00 | 1.04E+00 | 1.04E+00 | – |
| – | – | CC[n+]1ccc(C=CC=Cc2ccc(N(C)C)cc2)cc1.[O-][Cl+3]([O-])([O-])[O-] [LDS722] | weak contrast and no clear triangular contours | – | – | 1.15E+00 | 1.14E+00 | 1.08E+00 | 1.13 and 1.13E+00 | no significant fluorescent signal was from BAT |
| – | – | CN(C)c1ccc(/C=C/C=C/C2=[N+](C)c3ccccc3C2(C)C)cc1.[O-][Cl+3]([O-])([O-])[O-] [LDS730] | – | – | – | 1.03E+00 | 1.08E+00 | 1.09E+00 | 1.07E+00 | – |
| – | – | CC[n+]1c(/C=C/C=C/c2ccc(N(C)C)cc2)ccc2cc(N(C)C)ccc21.[O-][Cl+3]([O-])([O-])[O-] [LDS751] | – | – | – | 1.07E+00 | 1.05E+00 | 1.11E+00 | 1.08E+00 | – |
| – | – | CC[n+]1ccc(/C=C/C=C/c2ccc(N(C)C)cc2)c2ccccc21.[O-][Cl+3]([O-])([O-])[O-] [LDS798] | – | – | – | 1.00E+00 | 1.00E+00 | 9.88E−01 | 9.98E−01 | – |
| – | – | CCN=c1cc2oc3c4c5c(cc3nc-2c2ccccc12)CCCN5CCC4 [OX750] | – | – | – | 1.09E+00 | 1.09E+00 | 1.04E+00 | 1.07E+00 | – |
| – | – | CC1=C(C)C(C)=[N+]2C1=C(C#N)c1c(C)c(C)c(C)n1[B-]2(F)F [Pyromethene650] | – | – | – | 1.09E+00 | 1.07E+00 | 1.08E+00 | 1.08E+00 | – |
| – | – | O=C(O)c1ccccc1C1=c2cc3c4c(c2Oc2c1cc1c5c2CCCN5CCC1)CCC[N+]=4CCC3.[Cl-] [Rhodamine640] | weak contrast and no clear triangular contours | – | – | 1.15E+00 | 1.15E+00 | 1.15E+00 | 1.15 and 1.15E+00 | no significant signals were from BAT |
| – | – | CCN(CC)c1ccc2c(-c3ccccc3C(C)=O)c3ccc(=[N+](CC)CC)cc-3oc2c1 [RhodamineB] | – | – | – | 1.01E+00 | 1.01E+00 | 9.54E−01 | 9.90E−01 | – |
| – | – | Cy5.5 | – | – | – | 1.07E+00 | 1.07E+00 | 1.06E+00 | 1.07E+00 | – |
| – | – | Sulforhodamine | – | – | – | 8.51E−01 | 8.86E−01 | 9.21E−01 | 8.86E−01 | – |
